Values belong to the compound of their own block, whether it stands above or below them.
How the values were obtained:
[1] = biological target: Serotonin 3 (5-HT3) receptor; assay: Compound was evaluated for binding affinity against 5-hydroxytryptamine 3 receptor using radioligand binding assay; format: protein-complex assay
[2] = biological target: T1, Muscarinic acetylcholine receptor M1 (Homo sapiens, UniProt P11229); assay: Compound was evaluated for binding affinity against Muscarinic M1 receptor using radioligand binding assay
T1 sequence (P11229 whole entry): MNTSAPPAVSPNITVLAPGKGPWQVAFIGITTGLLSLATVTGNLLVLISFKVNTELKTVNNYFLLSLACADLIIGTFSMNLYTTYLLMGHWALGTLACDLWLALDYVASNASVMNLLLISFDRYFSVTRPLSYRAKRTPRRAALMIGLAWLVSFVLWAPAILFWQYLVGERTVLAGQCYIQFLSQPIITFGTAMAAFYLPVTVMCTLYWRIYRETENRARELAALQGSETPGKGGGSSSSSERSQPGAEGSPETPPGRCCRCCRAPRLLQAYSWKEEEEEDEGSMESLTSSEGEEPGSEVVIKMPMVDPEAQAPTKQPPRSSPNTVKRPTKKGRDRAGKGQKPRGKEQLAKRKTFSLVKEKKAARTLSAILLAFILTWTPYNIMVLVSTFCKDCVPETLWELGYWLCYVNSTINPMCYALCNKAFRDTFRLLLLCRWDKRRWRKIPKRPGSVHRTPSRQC

[3] = biological target: 5-hydroxytryptamine receptor 2A (Homo sapiens, UniProt P28223); assay: Compound was evaluated for binding affinity against 5-hydroxytryptamine 2A receptor using radioligand binding assay
[4] = biological target: Muscarinic acetylcholine receptor M3 (Homo sapiens, UniProt P20309); assay: Compound was evaluated for binding affinity against Muscarinic M3 receptor using radioligand binding assay
[5] = biological target: T2, Muscarinic acetylcholine receptor M2 (Homo sapiens, UniProt P08172); assay: Compound was evaluated for binding affinity against Muscarinic M2 receptor using radioligand binding assay
T2 sequence (P08172 whole entry): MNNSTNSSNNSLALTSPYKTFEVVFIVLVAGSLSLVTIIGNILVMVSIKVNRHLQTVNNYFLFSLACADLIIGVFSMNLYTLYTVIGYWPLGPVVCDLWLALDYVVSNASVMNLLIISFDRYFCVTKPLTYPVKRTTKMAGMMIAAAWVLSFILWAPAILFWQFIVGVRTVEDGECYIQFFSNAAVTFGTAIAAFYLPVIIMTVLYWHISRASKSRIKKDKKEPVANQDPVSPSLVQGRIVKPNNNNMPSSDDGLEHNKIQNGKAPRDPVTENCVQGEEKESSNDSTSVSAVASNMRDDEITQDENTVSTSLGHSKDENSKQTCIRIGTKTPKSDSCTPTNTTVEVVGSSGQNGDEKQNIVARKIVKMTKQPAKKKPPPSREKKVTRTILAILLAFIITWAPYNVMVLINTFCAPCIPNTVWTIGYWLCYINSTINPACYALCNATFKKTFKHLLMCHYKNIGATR

Sus scrofa [6] = assay: Antagonism of 5-HT-induced tachycardia in anesthetized, vagotomized Yucatan micropigs at 0.03-10 ug/kg dose administered intravenously; format: functional; conditions: iv, read-out: ID50 (the source's name)
[7] = biological target: T3, 5-hydroxytryptamine receptor 1A (Mus musculus, UniProt Q64264); assay: Compound was evaluated for binding affinity against 5-hydroxytryptamine 1A receptor using radioligand binding assay
T3 sequence (Q64264 whole entry): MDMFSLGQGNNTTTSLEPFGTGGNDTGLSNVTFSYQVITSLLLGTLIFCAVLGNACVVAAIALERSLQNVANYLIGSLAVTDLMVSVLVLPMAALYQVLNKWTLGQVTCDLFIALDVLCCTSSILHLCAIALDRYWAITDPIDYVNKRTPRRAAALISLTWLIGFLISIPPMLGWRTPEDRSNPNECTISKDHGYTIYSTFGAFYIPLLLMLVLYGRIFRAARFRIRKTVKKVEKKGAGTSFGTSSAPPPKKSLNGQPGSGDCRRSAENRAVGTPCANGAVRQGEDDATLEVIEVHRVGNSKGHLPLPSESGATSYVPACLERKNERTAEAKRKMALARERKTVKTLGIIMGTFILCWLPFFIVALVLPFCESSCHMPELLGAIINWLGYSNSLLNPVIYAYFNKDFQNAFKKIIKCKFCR

Sus scrofa [8] = assay: Antagonism of 5-HT-induced tachycardia in anesthetized, vagotomized Yucatan micropigs at 0.1-30 ug/kg dose administered intraduodenally; format: functional; conditions: intraduodenal, read-out: ID50 (the source's name)
D(2) dopamine receptor = D(2) dopamine receptor (Homo sapiens, UniProt P14416); assay: Compound was evaluated for binding affinity against Dopamine D2 receptor using radioligand binding assay
[9] = biological target: T4, Alpha-2A adrenergic receptor (Homo sapiens, UniProt P08913); assay: Compound was evaluated for binding affinity against Alpha-2A adrenergic receptor using radioligand binding assay
T4 sequence (P08913 whole entry): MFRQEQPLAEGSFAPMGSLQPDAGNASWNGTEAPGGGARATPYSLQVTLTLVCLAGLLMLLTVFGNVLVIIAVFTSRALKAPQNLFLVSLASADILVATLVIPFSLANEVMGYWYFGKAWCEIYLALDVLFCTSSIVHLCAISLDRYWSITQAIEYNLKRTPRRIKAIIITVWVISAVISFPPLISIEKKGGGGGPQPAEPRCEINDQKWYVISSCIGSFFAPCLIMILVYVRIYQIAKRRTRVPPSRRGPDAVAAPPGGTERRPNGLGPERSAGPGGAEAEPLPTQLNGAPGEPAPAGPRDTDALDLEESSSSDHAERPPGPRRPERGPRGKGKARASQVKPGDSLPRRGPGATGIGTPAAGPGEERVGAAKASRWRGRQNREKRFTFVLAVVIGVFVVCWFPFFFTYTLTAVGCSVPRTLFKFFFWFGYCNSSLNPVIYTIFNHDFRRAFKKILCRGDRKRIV

[10] = biological target: T5, Alpha-1B adrenergic receptor (Homo sapiens, UniProt P35368); assay: Compound was evaluated for binding affinity against Alpha-1B adrenergic receptor using radioligand binding assay
T5 sequence (P35368 whole entry): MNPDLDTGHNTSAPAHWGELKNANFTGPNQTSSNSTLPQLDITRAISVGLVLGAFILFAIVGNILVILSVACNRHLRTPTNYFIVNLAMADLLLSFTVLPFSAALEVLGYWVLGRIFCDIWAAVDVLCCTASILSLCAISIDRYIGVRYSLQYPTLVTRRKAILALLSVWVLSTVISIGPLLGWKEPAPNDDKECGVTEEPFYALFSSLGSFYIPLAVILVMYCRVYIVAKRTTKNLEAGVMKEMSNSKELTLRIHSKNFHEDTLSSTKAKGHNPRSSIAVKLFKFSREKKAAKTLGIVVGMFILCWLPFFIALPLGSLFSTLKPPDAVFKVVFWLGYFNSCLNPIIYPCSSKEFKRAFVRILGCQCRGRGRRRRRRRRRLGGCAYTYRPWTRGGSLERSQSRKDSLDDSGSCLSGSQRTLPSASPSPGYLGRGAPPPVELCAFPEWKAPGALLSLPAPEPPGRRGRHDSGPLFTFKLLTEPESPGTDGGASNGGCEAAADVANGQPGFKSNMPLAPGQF

[11] = biological target: T6, 5-hydroxytryptamine receptor 2C (Homo sapiens, UniProt P28335); assay: Compound was evaluated for binding affinity against 5-hydroxytryptamine 2C receptor using radioligand binding assay
T6 sequence (P28335 whole entry): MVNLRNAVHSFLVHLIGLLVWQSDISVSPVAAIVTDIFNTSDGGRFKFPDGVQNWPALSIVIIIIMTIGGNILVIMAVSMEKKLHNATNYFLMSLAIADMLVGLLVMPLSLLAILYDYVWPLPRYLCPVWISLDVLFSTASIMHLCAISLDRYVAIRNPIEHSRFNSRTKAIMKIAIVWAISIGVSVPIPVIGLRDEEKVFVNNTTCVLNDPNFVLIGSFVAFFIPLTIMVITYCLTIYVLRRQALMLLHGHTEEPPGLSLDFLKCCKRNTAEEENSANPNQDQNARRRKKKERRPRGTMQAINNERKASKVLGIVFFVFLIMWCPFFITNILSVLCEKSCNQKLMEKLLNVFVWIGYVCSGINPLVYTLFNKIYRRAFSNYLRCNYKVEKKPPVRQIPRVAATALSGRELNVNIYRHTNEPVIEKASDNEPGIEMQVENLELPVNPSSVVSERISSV

[12] = biological target: T7, Alpha-2B adrenergic receptor (Homo sapiens, UniProt P18089); assay: Compound was evaluated for binding affinity against Alpha-2B adrenergic receptor using radioligand binding assay
T7 sequence (P18089 whole entry): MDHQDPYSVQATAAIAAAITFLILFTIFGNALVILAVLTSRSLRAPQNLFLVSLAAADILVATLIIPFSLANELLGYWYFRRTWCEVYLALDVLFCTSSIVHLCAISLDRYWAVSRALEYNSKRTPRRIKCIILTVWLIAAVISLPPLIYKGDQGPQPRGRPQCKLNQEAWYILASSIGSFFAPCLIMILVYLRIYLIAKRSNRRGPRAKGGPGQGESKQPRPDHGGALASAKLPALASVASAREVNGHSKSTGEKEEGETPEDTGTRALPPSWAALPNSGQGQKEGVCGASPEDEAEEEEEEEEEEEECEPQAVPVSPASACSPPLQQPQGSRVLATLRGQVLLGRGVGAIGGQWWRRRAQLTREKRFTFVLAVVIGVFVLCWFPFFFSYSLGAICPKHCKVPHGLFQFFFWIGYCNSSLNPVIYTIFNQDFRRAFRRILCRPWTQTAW

[13] = Compound was tested for its half-life period at an intravenous dose of 3 ug/kg; format: ADME, organism-based, Sus scrofa; conditions: pig, in vivo, 0.003 mg/kg
D(1A) dopamine receptor = D(1A) dopamine receptor (Homo sapiens, UniProt P21728); assay: Compound was evaluated for binding affinity against Dopamine D1 receptor using radioligand binding assay
[14] = biological target: 5-hydroxytryptamine receptor 4 (Cavia porcellus, UniProt O70528); assay: Compound was evaluated for binding affinity against 5-hydroxytryptamine 4 receptor using radioligand binding assay using [3H]GR as radioligand
[15] = biological target: T8, Alpha-1A adrenergic receptor (Homo sapiens, UniProt P35348); assay: Compound was evaluated for binding affinity against Alpha-1C adrenergic receptor using radioligand binding assay
T8 sequence (P35348 whole entry): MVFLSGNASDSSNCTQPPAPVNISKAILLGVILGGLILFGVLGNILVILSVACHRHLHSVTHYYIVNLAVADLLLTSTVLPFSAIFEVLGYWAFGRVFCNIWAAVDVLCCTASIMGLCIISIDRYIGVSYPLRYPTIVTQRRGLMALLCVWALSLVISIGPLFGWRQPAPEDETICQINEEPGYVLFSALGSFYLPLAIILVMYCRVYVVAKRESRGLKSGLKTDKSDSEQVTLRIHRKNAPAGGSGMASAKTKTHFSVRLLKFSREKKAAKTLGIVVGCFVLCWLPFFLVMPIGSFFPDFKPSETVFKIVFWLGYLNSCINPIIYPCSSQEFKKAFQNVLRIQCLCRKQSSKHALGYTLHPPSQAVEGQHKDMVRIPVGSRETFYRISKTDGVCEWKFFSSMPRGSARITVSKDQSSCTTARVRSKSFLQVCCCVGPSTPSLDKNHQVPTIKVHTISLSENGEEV

[16] = biological target: T9, Type-1 angiotensin II receptor (Homo sapiens, UniProt P30556); assay: Compound was evaluated for binding affinity against Angiotensin II receptor, type 1 using radioligand binding assay
T9 sequence (P30556 whole entry): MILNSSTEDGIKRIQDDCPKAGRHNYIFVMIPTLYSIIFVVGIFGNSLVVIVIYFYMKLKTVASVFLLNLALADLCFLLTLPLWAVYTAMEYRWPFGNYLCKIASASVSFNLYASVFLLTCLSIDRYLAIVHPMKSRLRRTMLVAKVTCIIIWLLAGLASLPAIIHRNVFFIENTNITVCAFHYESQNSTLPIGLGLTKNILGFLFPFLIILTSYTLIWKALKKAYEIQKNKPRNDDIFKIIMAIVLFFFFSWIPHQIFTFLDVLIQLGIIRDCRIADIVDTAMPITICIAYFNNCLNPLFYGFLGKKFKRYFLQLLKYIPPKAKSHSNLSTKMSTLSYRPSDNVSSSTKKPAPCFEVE

[17] = biological target: T10, Type-2 angiotensin II receptor (Homo sapiens, UniProt P50052); assay: Compound was evaluated for binding affinity against Angiotensin II receptor, type 2 using radioligand binding assay
T10 sequence (P50052 whole entry): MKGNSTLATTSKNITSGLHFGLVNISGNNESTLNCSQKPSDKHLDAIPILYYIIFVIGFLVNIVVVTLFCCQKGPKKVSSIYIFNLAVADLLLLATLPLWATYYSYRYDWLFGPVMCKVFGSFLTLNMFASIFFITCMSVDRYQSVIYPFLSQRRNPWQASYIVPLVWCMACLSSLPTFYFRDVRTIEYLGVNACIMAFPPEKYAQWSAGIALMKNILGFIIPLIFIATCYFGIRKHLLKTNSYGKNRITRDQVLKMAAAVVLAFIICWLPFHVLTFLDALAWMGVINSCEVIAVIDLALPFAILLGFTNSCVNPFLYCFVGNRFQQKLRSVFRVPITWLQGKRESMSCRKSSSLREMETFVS

[18] = biological target: 5-hydroxytryptamine receptor 4 (Rattus norvegicus) (UniProt Q62758); assay: Antagonist activity against 5-HT4 receptor mediated relaxation of rat carbachol contracted esophageal muscularis mucosae; format: functional
Sus scrofa [19] = assay: Antagonism of 5-HT-induced tachycardia in anesthetized, vagotomized Yucatan micropigs at 1-300 ug/kg dose administered intravenously; format: functional; conditions: iv, read-out: ID50 (the source's name)
Sus scrofa [20] = assay: Antagonism of 5-HT-induced tachycardia in anesthetized, vagotomized Yucatan micropigs at 30-3000 ug/kg dose administered intraduodenally; format: functional; conditions: intraduodenal, read-out: ID50 (the source's name)
[21] = Compound was tested for its half-life period at an intravenous dose of 30 ug/kg; format: ADME, organism-based, Sus scrofa; conditions: pig, in vivo, 0.03 mg/kg

5-hydroxytryptamine receptor 4 (Rattus norvegicus), sequence (Q62758 whole entry): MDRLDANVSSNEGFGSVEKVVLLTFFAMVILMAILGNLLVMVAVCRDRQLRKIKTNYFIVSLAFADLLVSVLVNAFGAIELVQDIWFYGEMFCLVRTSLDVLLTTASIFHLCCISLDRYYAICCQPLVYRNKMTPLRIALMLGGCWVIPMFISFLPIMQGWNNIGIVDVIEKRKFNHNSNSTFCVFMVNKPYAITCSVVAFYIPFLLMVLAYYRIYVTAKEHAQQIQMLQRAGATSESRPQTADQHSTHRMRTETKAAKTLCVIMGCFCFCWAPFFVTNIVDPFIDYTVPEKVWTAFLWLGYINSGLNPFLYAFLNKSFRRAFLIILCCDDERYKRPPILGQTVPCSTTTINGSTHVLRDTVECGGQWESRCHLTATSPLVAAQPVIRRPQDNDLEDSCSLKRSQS
D(2) dopamine receptor, sequence (P14416 whole entry): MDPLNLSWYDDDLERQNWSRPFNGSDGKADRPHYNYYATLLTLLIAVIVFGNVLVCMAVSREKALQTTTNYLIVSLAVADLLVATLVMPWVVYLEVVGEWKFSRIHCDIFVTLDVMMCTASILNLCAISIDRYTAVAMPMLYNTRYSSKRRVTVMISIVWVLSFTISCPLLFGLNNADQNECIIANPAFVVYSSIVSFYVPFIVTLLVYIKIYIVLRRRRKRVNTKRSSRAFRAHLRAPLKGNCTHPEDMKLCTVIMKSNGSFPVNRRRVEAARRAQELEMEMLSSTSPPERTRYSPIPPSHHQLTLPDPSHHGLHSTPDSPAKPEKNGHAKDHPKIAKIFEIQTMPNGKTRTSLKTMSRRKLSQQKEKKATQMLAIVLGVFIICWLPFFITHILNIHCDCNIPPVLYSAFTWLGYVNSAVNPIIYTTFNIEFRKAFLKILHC
5-hydroxytryptamine receptor 4, sequence (O70528 whole entry): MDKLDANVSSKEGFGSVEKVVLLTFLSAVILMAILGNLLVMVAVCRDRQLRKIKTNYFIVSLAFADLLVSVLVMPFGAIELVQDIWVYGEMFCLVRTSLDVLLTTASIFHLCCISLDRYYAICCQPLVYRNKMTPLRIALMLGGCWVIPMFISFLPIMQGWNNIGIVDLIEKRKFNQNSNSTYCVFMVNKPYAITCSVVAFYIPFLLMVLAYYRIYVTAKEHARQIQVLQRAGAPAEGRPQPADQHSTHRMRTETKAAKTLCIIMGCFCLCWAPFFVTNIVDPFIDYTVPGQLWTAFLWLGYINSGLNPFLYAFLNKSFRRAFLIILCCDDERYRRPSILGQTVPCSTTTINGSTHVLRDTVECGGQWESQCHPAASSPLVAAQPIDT
Muscarinic acetylcholine receptor M3, sequence (P20309 whole entry): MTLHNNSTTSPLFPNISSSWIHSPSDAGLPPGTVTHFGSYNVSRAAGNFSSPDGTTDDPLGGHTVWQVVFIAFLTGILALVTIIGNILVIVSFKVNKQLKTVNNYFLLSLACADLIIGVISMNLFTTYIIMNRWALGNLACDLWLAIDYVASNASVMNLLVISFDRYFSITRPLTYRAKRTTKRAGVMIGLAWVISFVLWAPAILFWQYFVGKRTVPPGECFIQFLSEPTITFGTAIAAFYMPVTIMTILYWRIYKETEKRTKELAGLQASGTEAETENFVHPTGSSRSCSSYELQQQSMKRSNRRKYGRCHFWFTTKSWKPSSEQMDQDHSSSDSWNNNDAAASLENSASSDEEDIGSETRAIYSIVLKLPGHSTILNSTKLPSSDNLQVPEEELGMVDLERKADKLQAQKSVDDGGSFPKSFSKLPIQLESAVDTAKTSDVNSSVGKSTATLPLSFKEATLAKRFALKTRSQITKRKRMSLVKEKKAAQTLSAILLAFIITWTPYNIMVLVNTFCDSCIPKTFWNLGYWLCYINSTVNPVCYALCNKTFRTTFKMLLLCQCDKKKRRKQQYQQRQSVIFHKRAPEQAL
5-hydroxytryptamine receptor 2A, sequence (P28223 whole entry): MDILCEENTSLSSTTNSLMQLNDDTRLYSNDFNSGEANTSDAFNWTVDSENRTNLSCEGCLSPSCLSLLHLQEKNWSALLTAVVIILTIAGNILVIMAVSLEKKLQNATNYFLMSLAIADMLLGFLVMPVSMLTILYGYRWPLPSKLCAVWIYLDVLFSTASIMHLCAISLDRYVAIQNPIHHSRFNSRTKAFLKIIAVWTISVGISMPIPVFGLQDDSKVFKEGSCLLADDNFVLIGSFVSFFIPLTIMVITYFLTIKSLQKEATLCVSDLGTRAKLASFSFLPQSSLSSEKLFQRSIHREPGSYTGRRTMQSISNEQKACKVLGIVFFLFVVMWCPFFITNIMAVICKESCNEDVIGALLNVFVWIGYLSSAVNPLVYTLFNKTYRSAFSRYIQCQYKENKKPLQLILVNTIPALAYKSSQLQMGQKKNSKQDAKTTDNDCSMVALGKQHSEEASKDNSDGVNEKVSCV
D(1A) dopamine receptor, sequence (P21728 whole entry): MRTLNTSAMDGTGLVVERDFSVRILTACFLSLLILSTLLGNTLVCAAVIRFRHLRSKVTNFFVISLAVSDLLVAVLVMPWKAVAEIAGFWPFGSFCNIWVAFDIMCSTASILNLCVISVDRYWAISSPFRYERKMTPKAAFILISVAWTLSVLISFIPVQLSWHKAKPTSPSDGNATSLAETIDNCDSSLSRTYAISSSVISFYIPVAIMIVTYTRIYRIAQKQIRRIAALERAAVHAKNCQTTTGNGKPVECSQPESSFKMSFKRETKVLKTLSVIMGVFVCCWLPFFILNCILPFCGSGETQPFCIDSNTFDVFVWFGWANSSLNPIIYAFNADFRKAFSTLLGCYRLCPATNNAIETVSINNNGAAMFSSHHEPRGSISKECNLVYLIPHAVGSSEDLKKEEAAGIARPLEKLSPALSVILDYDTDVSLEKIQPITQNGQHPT

Log Ki [1]: -6.3 | Ki [2]: 1580 nM | Ki [3]: 501 nM | Ki [4]: 2000 nM | Ki [5]: 1260 nM | Ki [7]: 1000 nM | Ki (D(2) dopamine receptor): 316 nM | Ki [9]: 100 nM | Ki [10]: 501 nM | Ki [11]: 1580 nM | Ki [12]: 2510 nM | half-life [13]: > 6 h | Ki (D(1A) dopamine receptor): > 10000 nM | Ki [14]: 0.1 nM | Ki [15]: 316 nM | Ki [16]: > 10000 nM | Ki [17]: > 10000 nM
SMILES: COc1ccc(CCCN2CCC(CCC(=O)c3cc(Cl)c(N)c4c3OCCO4)CC2)cc1OC
ED50 (Sus scrofa [6]): 0.55 µg/kg | ED50 (Sus scrofa [8]): 1.52 µg/kg

pKb [18]: 9.6
SMILES: Nc1c(Cl)cc(C(=O)CCC2CCN(CCCc3ccccc3)CC2)c2c1OCCO2

pKb [18]: 9
SMILES: Cn1cc(C(=O)OCC2CCN(CCNS(C)(=O)=O)CC2)c2ccccc21

pKb [18]: 9.1 | half-life [21]: 5.25 h
SMILES: COc1cc(COc2cc(N)c(Cl)cc2C(=O)CCC2CCN(CCNS(C)(=O)=O)CC2)cc(OC)c1
ED50 (Sus scrofa [19]): 4.68 µg/kg | ED50 (Sus scrofa [20]): 245 µg/kg
